Laboratory results published in patent US12252524B2, “GIP/GLP1 co-agonist compounds” (Eli Lilly and Company, priority 2018, dated 2025).
Numbered stars: 1 amine (or outer) side, 2 acyl side, 3 side chain; on linkers, the order of the positions; unused ones are H or OH. Square brackets hold non-standard residues; d marks the D form. Side chains are listed from the residue outwards. Peptide text beside a SMILES is read from it. * marks the point of attachment. C20 diacid = O=C(O)CCCCCCCCCCCCCCCCCCC(=O)*; αMePhe(2-F) = C[C@](N)(Cc1ccccc1F)C(=O)O; γGlu = O=C(O)[C@H](CCC(=O)[*:2])N[*:1]; 4Pal = N[C@@H](Cc1ccncc1)C(=O)O; αMeL = CC(C)C[C@](C)(N)C(=O)O; AEEA = NCCOCCOCC(=O)O; Aib = CC(C)(N)C(=O)O

Columns and labels:
[1] = target: T1, human GIP receptor (Homo sapiens, UniProt P48546); test: [125I]-GIP binding (SPA), human GIP receptor; conditions: read-out: hGIPR Ki, nM (SEM, n)
T1 construct: expressed in transfected cells; crude membranes
T1 sequence (P48546 22-466): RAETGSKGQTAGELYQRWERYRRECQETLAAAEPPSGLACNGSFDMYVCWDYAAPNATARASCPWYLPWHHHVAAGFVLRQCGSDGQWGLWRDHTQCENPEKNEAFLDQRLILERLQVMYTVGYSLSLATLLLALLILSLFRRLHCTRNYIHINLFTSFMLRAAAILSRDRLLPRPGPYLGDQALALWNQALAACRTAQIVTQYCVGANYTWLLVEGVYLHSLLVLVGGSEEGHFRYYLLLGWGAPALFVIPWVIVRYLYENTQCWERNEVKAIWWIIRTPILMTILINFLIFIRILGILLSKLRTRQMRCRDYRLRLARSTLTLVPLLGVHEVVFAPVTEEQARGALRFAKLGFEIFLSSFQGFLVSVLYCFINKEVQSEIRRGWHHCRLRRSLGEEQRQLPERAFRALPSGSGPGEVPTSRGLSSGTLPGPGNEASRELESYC

[2] = target: human GLP-1 receptor (GLP-1R) (Homo sapiens, UniProt P43220); test: cAMP pharmacological functional assay in presence of casein, hGLP-1R; type: cell-based; conditions: HEK293 cells expressing hGLP-1R, 0.1% Casein, geometric mean; read-out: hGLP1R cAMP Rel EC50 nM (SEM, n)
Chain of human GLP-1 receptor (GLP-1R) (P43220 24-463): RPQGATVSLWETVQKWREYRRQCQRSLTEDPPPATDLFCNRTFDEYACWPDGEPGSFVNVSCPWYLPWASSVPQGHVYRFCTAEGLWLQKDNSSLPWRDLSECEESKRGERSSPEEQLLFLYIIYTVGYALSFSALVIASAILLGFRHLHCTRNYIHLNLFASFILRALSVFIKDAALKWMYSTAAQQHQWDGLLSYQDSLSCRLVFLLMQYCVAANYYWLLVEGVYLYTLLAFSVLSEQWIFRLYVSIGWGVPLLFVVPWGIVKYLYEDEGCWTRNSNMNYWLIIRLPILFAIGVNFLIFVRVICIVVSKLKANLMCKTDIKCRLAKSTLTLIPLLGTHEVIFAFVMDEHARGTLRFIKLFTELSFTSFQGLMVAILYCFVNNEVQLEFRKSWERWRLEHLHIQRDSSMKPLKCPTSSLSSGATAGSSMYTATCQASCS

[3] = target: T2, human Gcg receptor (Homo sapiens, UniProt P47871); test: [125I]-Glucagon binding (SPA), human Gcg receptor; conditions: read-out: hGLcgR Ki, nM (SEM, n)
T2 construct: expressed in transfected cells; crude membranes
T2 sequence (P47871 26-477): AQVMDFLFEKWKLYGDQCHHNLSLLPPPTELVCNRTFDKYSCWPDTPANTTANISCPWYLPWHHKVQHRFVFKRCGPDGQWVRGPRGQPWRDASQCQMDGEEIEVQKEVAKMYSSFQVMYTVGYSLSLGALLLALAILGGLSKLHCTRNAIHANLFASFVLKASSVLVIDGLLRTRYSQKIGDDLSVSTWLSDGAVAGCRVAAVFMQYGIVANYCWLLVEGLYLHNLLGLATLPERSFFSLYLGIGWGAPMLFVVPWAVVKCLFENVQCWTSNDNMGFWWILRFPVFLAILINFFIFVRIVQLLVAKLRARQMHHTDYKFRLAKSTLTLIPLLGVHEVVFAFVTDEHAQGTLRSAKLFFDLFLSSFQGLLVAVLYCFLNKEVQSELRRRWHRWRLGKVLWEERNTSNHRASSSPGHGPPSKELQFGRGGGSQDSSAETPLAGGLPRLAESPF
Procedure, shortened: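 Crude membranes from cells expressing the receptor, prepared by hypotonic lysis in 50 mM Tris HCl pH 7.5 with protease inhibitors, homogenization and differential centrifugation, were used in a WGA-bead SPA. Binding buffer: 25 mM HEPES pH 7.4, 2.5 mM CaCl2, 1 mM MgCl2, bacitracin, Tween-20.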

[4] = target: human GLP-1R (Homo sapiens, UniProt P43220); test: [125I]-GLP-1 binding (SPA), human GLP-1 receptor; design: expressed in transfected cells; crude membranes; conditions: read-out: hGLP1R Ki, (nM) (SEM, n)
Chain of human GLP-1R (P43220 24-463): as the sequence (P43220 24-463) above
Procedure, shortened: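 Frozen cell pellets are lysed on ice in hypotonic Tris buffer, pH 7.5, homogenized, and centrifuged to a membrane pellet resuspended at about 1 to 3 mg/mL. Binding is then measured in HEPES-based buffer at pH 7.4, and curves are fitted to give IC50 and Ki.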

[5] = target: T3, gastric inhibitory peptide receptor (GIPR) (Homo sapiens, UniProt P48546); test: cAMP pharmacological functional assay in presence of casein, hGIPR; type: cell-based; conditions: HEK293 cells expressing hGIPR, 0.1% Casein, geometric mean; read-out: hGIPR cAMP Rel EC50 nM (SEM, n)
T3 sequence (P48546 22-466): T1 sequence (P48546 22-466)

In the case of `CC[C@H](C)[C@H](NC(=O)[C@H](CC(C)C)NC(=O)[C@H](Cc1ccc(O)cc1)NC(=O)C(C)(C)NC(=O)[C@@H](NC(=O)[C@H](Cc1ccccc1)NC(=O)[C@H](CCC(=O)O)NC(=O)C(C)(C)NC(=O)[C@H](CCC(N)=O)NC(=O)[C@H](C)NC(=O)[C@H](CCCCNC(=O)COCCOCCNC(=O)COCCOCCNC(=O)CC[C@H](NC(=O)CCCCCCCCCCCCCCCCCCC(=O)O)C(=O)O)NC(=O)[C@H](CCC(=O)O)NC(=O)[C@H](CC(=O)O)NC(=O)[C@H](CC(C)C)NC(=O)[C@](C)(CC(C)C)NC(=O)[C@@H](NC(=O)[C@H](CO)NC(=O)[C@H](Cc1ccncc1)NC(=O)[C@H](CC(=O)O)NC(=O)[C@H](CO)NC(=O)[C@@H](NC(=O)[C@](C)(Cc1ccccc1F)NC(=O)[C@@H](NC(=O)CNC(=O)[C@H](CCC(=O)O)NC(=O)C(C)(C)NC(=O)[C@@H](N)Cc1ccc(O)cc1)[C@@H](C)O)[C@@H](C)O)[C@@H](C)CC)[C@@H](C)CC)C(=O)N[C@@H](CCC(=O)O)C(=O)NCC(=O)NCC(=O)N1CCC[C@H]1C(=O)N[C@@H](CO)C(=O)N[C@@H](CO)C(=O)NCC(=O)N[C@@H](C)C(=O)N1CCC[C@H]1C(=O)N1CCC[C@H]1C(=O)N1CCC[C@H]1C(=O)N[C@@H](CO)C(N)=O` [Example 189] (H-Y[Aib]EGT[αMePhe(2-F)]TSD[4Pal]SI[αMeL]LDEK([AEEA-AEEA-γGlu-C20 diacid])AQ[Aib]EFI[Aib]YLIEGGPSSGAPPPS-NH2), the Ki [1] is reported as 0.128 nM, the EC50 [2] is reported as 0.0608 nM and the Ki [3] is reported as 146 nM. The Ki [4] was 8.81 nM and the EC50 [5] was 0.0775 nM.
`CC[C@H](C)[C@H](NC(=O)[C@H](CC(C)C)NC(=O)[C@H](Cc1ccc(O)cc1)NC(=O)[C@@H](CCC(=O)O)NC(=O)[C@@H](NC(=O)[C@H](Cc1ccccc1)NC(=O)[C@H](CCC(=O)O)NC(=O)C(C)(C)NC(=O)[C@H](CCC(N)=O)NC(=O)[C@H](C)NC(=O)[C@H](CCCCNC(=O)COCCOCCNC(=O)COCCOCCNC(=O)CC[C@H](NC(=O)CCCCCCCCCCCCCCCCCCC(=O)O)C(=O)O)NC(=O)[C@H](CCC(=O)O)NC(=O)[C@H](CC(=O)O)NC(=O)[C@H](CC(C)C)NC(=O)[C@](C)(CC(C)C)NC(=O)[C@@H](NC(=O)[C@H](CO)NC(=O)[C@@H](NC(=O)[C@H](CC(=O)O)NC(=O)[C@H](CO)NC(=O)[C@@H](NC(=O)[C@](C)(Cc1ccccc1F)NC(=O)[C@@H](NC(=O)CNC(=O)[C@H](CCC(=O)O)NC(=O)C(C)(C)NC(=O)[C@@H](N)Cc1ccc(O)cc1)[C@@H](C)O)[C@@H](C)O)C(C)C)[C@@H](C)CC)[C@@H](C)CC)C(=O)N[C@@H](CCC(=O)O)C(=O)NCC(=O)NCC(=O)N1CCC[C@H]1C(=O)N[C@@H](CO)C(=O)N[C@@H](CO)C(=O)NCC(=O)N[C@@H](C)C(=O)N1CCC[C@H]1C(=O)N1CCC[C@H]1C(=O)N1CCC[C@H]1C(=O)N[C@@H](CO)C(N)=O` [Example 191] (H-Y[Aib]EGT[αMePhe(2-F)]TSDVSI[αMeL]LDEK([AEEA-AEEA-γGlu-C20 diacid])AQ[Aib]EFI[dE]YLIEGGPSSGAPPPS-NH2) was tested, and the Ki [1] was 0.144 nM, the EC50 [2] was 0.0356 nM and the Ki [3] was 348 nM. For the same compound, the Ki [4] was 4.52 nM and the EC50 [5] was 0.0645 nM.
